Patent US8030284B2, “Treatment of eye disorders characterized by an elevated intraocular pressure by siRNAs” (Sylentis S.A.U., priority 2004, dated 2011)

Legend:
[1] = test system: normotensive New Zealand rabbit; assay: IOP reduction after topical application to the cornea; type: in vivo, New Zealand White rabbit; conditions: topical 40 ul to cornea, once daily for four days; control = contralateral eye with vehicle alone; mean of maximum reduction ± SEM
Excerpt: The New Zealand rabbit is the gold standard in experimental platforms designed to study IOP. It is easy to handle and it has a big eye, similar in size to the human organ. In addition, present equipment to measure IOP is not suited to use in animals with small eyes such as mice or rats. Finally, rabbits have an IOP (around 23 mm Hg) that can be brought down to up to 40% its value using local commercial hypotensive medication. Thus, although it is possible to generate rabbit glaucoma models (for example, surgically blocking episclerotic veins or artificially occluding the trabecular meshwork), we have used normotensive rabbits since, in our hands, the pharmacological decrease in IOP can be easily and reproducibly measured.
Normotensive New Zealand White rabbits (males, 2-3 kg) were used. The animals were kept in individual cages with free access to food and water. They were submitted to artificial 12 hours light/darkness cycles, to avoid uncontrolled circadian oscillations of IOP Animal handling and treatment were carried out in accordance with the European Communities Council Directive (86/609/EEC) and the statement of the Association for Research in Vision and Ophthalmology on the Use of Animals in Ophthalmic and Vision Research.
The drugs were typically administered by instilling a small volume (typically 40 μL) on the corneal surface. Contralateral eyes were treated with the vehicle alone and could be used as controls in each experiment […] there is a sympathy phenomenon with the other eye. Multiple experiments in the same animal should be abolished.
IOP measurements were done using a contact tonometer (TONOPEN XL, Mentor, Norwell, Mass.). The TonoPen tonometer is very convenient due to its reliability and small size. Measurements with this instrument were performed delicately applying the tonometer's sensor to the corneal surface. […] All measurements fell within this interval: the mean baseline value of intraocular pressure was 17.0±0.39 mm Hg (n=100). […] In order to avoid distress to the animal, rabbits were topically anesthetized (oxibuprocaine/tetracaine, 0.4%/1%, in a saline solution (1/4 v:v). The solution was applied (10 μl) to the cornea before each measurement of intraocular pressure was made. siRNA or saline was applied topically to the cornea in volumes of 40 μl.
The standard protocol for the siRNA application in rabbit was as follows. Doses of siRNA in saline solution (0.9% w/v) to a final volume of 40 ul, were applied to one eye each day during four consecutive days. The opposite eye was taken as a control and 40 ul of sterile saline (0.9% w/v) were instilled on it, at the same time points. The IOP was measured before each application and at 2 h, 4 h and 6 h following the instillation, during 10 days. Maximum responses were observed between second and third day. To compare the effect of siRNA with other hypotensive compounds, Xalatan (latanoprost 0.005%) and Trustop (Dorzolamide 2%) were assayed and IOP measured in the same conditions.
Those siRNAs selected by the in vitro assays were applied to the animal model, following the protocol previously described. To avoid the effect of IOP fluctuations due to circadian cycles, all the applications were performed at the same time. To determine the siRNA effect, intraocular pressures (IOPs) were measured as previously mentioned.
The data are summarized in table II where values represent the mean of the maximum percentage of IOP reduction after siRNA treatment once normalized and their standard deviations. The decrease in IOP was statistically significant for all the treated targets. […] The siRNAs used in these experiments correspond to the human targets given in FIGS. 2A-2R as follows: • AC2: rabbit sequence homologous to human SEQ. ID. 73 • AC4: rabbit sequence identical to human SEQ. ID. 5 • AC12: rabbit sequence identical to human SEQ. ID. 522 • ADRB1: rabbit sequence identical to human SEQ. ID. 105 • ADRB2: rabbit sequence homologous to human SEQ. ID. […]

AC2 = assay: siRNA interference in cell cultures, real time PCR of AC2 transcript; type: cell-based, rabbit; conditions: normalized to actin relative to cell control, mean ± SD
Method: To check the specificity of the siRNA interference different cell cultures that express the target genes were employed. The cells used for these experiments were: rabbit non-pigmented ciliary epithelium cells NPE, human ciliary epithelium cells OMDC, and human embryonic kidney cells HEK293. The cells are incubated with the corresponding siRNA duplexes, and analysis of the downregulation of expression of the target gene is carried out.
Several examples of techniques well known in the art are as follows: We can perform a single transfection of siRNA duplex using a cationic lipid, such as RNAiFect Transfection Reagent (Qiagen) and Lipofectamine 2000 Reagent (Invitrogen) and assay for silencing 24, 48 and 72 hours after transfection.
A typical transfection protocol can be performed as follows: For one well of a 6-well plate, we transfect using 100 nM as final concentration of siRNA. Following RNAiFect protocol, we seed, the day before transfection, 2-4×10^5 cells per well in 3 ml of an appropriate growth medium, containing DMEM, 10% serum, antibiotics and glutamine, and incubate cells under normal growth conditions (37° C. and 5% CO2). On the day of transfection, cells have to be at 30-50% confluence. We dilute 15 ul of 20 uM siRNA duplex (corresponding to 100 nM final concentration) in 85 ul of Buffer EC-R, to give a final volume of 100 ul, and mix by vortexing. For complex formation, we add 19 ul of RNAiFect Transfection Reagent to the diluted siRNA and mix by pipetting or vortexing. After incubating the samples for 10-15 minutes at room temperature to allow formation of transfection complexes, we add the complexes drop-wise onto the cells with 2.9 ml of fresh growth medium low in antibiotics. After swirling the plates to ensure uniform distribution of the transfection complexes, we incubate the cells under their normal growth conditions. The day after, the complexes are removed and fresh and complete growth medium is added. To monitor gene silencing, cells are collected at 24, 48 and 72 hours post-transfection. The Lipofectamine 2000 Reagent protocol is quite similar. The day before transfection, we seed 2-4×10^5 cells per well in 3 ml of an appropriate growth medium, containing DMEM, 10% serum, antibiotics and glutamine, and incubate cells under normal growth conditions (37° C. and 5% CO2). On the day of transfection, cells have to be at 30-50% confluence. We dilute 12.5 ul of 20 uM siRNA duplex (corresponding to 100 nM final concentration) in 250 ul of DMEM, to give a final volume of 262.5 ul, and mix. Also, 6 ul of Lipofectamine 2000 is diluted in 250 ul of DMEM and mixed. After a 5 minutes incubation at room temperature, the diluted oligomer and the diluted Lipofectamine are combined to allow complex formation during a 20 minutes incubation at room temperature. […]

In the case of `CCN[C@H]1C[C@H](C)S(=O)(=O)c2sc(S(N)(=O)=O)cc21` [Dorzolamide, reference compound], the “IOP reduction (% of the control)” value [1] is reported as 16.41 ± 2.38 % of the control.
For `CC(C)OC(=O)CCC/C=C\C[C@@H]1[C@@H](CC[C@@H](O)CCc2ccccc2)[C@H](O)C[C@@H]1O` [Latanoprost, latanoprost, reference compound], the “IOP reduction (% of the control)” value [1] was 25.46 ± 5.24 % of the control.
With “AC2 siRNA2: siRNA against AC2: rabbit sequence identical to human SEQ. ID. 54 (CTTCCCTGAGGATCCTCAA; listed as DNA, chemistry not given here; listed as Homo sapiens)” the “% of gene transcript level” value (AC2; 24 h siRNA treatment) was 37.97 ± 9.78% and the “% of gene transcript level” value (AC2; 48 h siRNA treatment) was 61.45 ± 9.62%.
In the case of “AC2 siRNA3: siRNA against AC2: rabbit sequence identical to human SEQ. ID. 66 (CTTCACTTGGTTCACTGGA; listed as DNA, chemistry not given here; listed as Homo sapiens)”, the “% of gene transcript level” value (AC2; 24 h siRNA treatment) is reported as 35.30 ± 9.73% and the “% of gene transcript level” value (AC2; 48 h siRNA treatment) is reported as 51.14 ± 16.49%.
With “ADRB1: siRNA against ADRB1: rabbit sequence identical to human SEQ. ID. 105 (CGACCCCAAGTGCTGCGAC; listed as DNA, chemistry not given here; listed as Homo sapiens)” the “IOP reduction (% of the control)” value [1] was 28.04 ± 2.98 % of the control.
For “AGTR2: siRNA against AGTR2: rabbit sequence identical to human SEQ. ID. 774 (GCATCTTATATAGTTCCCC; listed as DNA, chemistry not given here; listed as Homo sapiens)”, the “IOP reduction (% of the control)” value [1] was 11.22 ± 1.53 % of the control.
With “ATP1A1: siRNA against ATP1A1: rabbit sequence identical to human SEQ. ID. 1399 (CTGGAACTCTGACTCAGAA; listed as DNA, chemistry not given here; listed as Homo sapiens)” the “IOP reduction (% of the control)” value [1] was 18.13 ± 1.39 % of the control.
In the case of “ATP1B2: siRNA against ATP1B2: rabbit sequence identical to human SEQ. ID. 1820 (GTTCCACGTGAACTACACA; listed as DNA, chemistry not given here; listed as Homo sapiens)”, the “IOP reduction (% of the control)” value [1] is reported as 16.32 ± 0.91 % of the control.
